Here are results for 11 compounds from PubChem BioAssay (NCI).

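Growth conditions: 96-well plates. Treatment: test compound, 48 hours, 5 concentrations. Analysis: linear interpolation between bracketing concentrations; unreached endpoints set to highest concentration. The concentration for 50% growth inhibition is given as GI50. At the TGI there is no net growth.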

Holding throughout (experiment): inhibition of tumour cell growth, NCI panel, 48 h
The subject of assay [1] is SF-539 CNS.
For assay [2], the system named is HCT-15 colon.
For assay [3], the system named is RXF 393 renal.
The test system of assay [4] is HCC-2998 colon.
Assay [5] relates to HCT-116 colon.
Assay [6] relates to MCF7 breast.
Assay [7] deals with MDA-MB-231 breast.
For assay [8], the system named is A549 NSCLC.
The test system of assay [9] is OVCAR-5 ovarian.
Assay [10] concerns COLO 205 colon.
For assay [11], the system named is HOP-92 NSCLC.
Assay [12] relates to LOX IMVI melanoma.
The subject of assay [13] is NCI-H226 lung.
Assay [14] has as its system EKVX NSCLC.
For assay [15], the system named is NCI-H23 lung.
In assay [16] the test system is HOP-62 NSCLC.
Assay [17] deals with OVCAR-8 ovarian.
The subject of assay [18] is U251 CNS.
Assay [19] concerns SF-295 CNS.

In the case of `Cc1ccc(S(=O)(=O)N/N=C2\CCCCCCCCCCC2CN(C)C)cc1` (stereo not given), the TGI was found to be 31.6 µM in assay [1]; 29 µM in assay [2]; 26.6 µM in assay [3]; 20.8 µM in assay [4]; 28.2 µM in assay [5]; 31 µM in assay [6]. The TGI was 34 µM in assay [7]; 41 µM in [8]; 30.9 µM in [9]; 31.9 µM in [10]; 24.7 µM in assay [11]; 31.5 µM in assay [12]. Further, the TGI in assay [13] came out at 35.2 µM; in assay [14], 70 µM; in [15], 55.8 µM; in assay [16], 33.8 µM; in assay [17], 30.7 µM; in [18], 29.3 µM. For the same compound, the TGI in [19] came out at 30.9 µM.
Turning to `COC(=O)c1ccc(C)cc1CC1Cc2cccc(C)c2C1=O` (stereo not given), the TGI was 17.6 µM in assay [1]; 12.5 µM in assay [2]; 30.2 µM in [3]; 29.3 µM in [4]; 20.8 µM in assay [5]; 7.38 µM in [6]. The TGI is 51.9 µM in assay [7]; > 100 µM in assay [8]; > 100 µM in [9]; 30.7 µM in assay [10]; 58.7 µM in assay [11]; 9.79 µM in assay [12]. Moreover, the TGI in assay [13] was 9.66 µM; in assay [14] it was 13.9 µM; in assay [15], > 100 µM; in assay [16] it was > 100 µM; in assay [17], 33.5 µM; in [18], 17.4 µM. The TGI in assay [19] was 72.2 µM.
As for `Cc1ccc(S(=O)(=O)N/N=C2\CCC3(O)CC2(C)CCC2C3CC2(C)C)cc1` (stereo not given), the TGI in assay [1], in assay [2], in assay [3], in assay [4], in [5] and in assay [6] was > 100 µM each time. The TGI in assay [7] was > 100 µM; in assay [8] it was > 100 µM; in [9], > 100 µM; in [10] it was 46.5 µM; in assay [11], > 100 µM; in assay [12], > 100 µM. Also, the TGI in [13] was 89.5 µM; in assay [14], > 100 µM; in assay [15], > 100 µM; in assay [16], > 100 µM; in assay [17], > 100 µM; in assay [18], > 100 µM. The TGI in assay [19] is > 100 µM.
Turning to `CC(NC1=CC(=O)c2cccnc2C1=O)C(O)c1ccccc1` (stereo not given), the TGI in [1] was determined as 3.75 µM; in assay [2] it was 8.08 µM; in [3] it was 16.5 µM; in [4], 10.8 µM; in assay [5], 7.79 µM; in assay [6] it was 3.04 µM. In addition, the TGI is > 46.3 µM in assay [7]; 5.13 µM in assay [8]; 4.69 µM in [9]; 3.42 µM in [10]; 24.5 µM in assay [11]; 3.16 µM in assay [12]. Moreover, the TGI in [13] is 4.44 µM; in assay [14], 20.1 µM; in assay [15], 3.01 µM; in assay [16] it was 3.03 µM; in [17], 17.6 µM; in [18], 13.2 µM. In assay [19], this compound had a TGI of 2.63 µM.
As to `CCOC(=O)CCC(NC(=O)c1ccc(Oc2nc3c(N)cc(C(F)(F)F)cc3nc2-c2ccccc2)cc1)C(=O)OCC` (stereo not given), the TGI was 8.48 µM in [1]; > 100 µM in [2]; 47.7 µM in [3]; > 100 µM in assay [4]; > 25.2 µM in [5]; > 100 µM in [6]. Also, the TGI in assay [7] is > 96.1 µM; in assay [8], > 100 µM; in assay [9], > 100 µM; in assay [10], > 100 µM; in [11], > 100 µM; in [12], > 100 µM. Also, the TGI in [13] was > 55.8 µM; in assay [14] it was > 100 µM; in assay [15], > 59.3 µM; in [16] it was 28.5 µM; in assay [17] it was > 80.7 µM; in assay [18], > 100 µM. The compound also yielded a TGI in [19] of 96.8 µM.
For `Nc1nc(Cl)c2ncn(Cc3cccc(CCl)c3)c2n1`, the TGI in [1] was 20 µM; in [2] it was 5.58 µM; in [3], 10.5 µM; in assay [4] it was 4.86 µM; in assay [5], 4.05 µM; in assay [6], > 31 µM. The TGI turned out to be 27.6 µM in assay [7]; 29.9 µM in [8]; 22.8 µM in assay [9]; 30.1 µM in assay [10]; 24.5 µM in assay [11]; 13.4 µM in assay [12]. Besides, the TGI in assay [13] is 26.9 µM; in assay [14] it was 21.2 µM; in assay [15], 4.23 µM; in assay [16], 9.48 µM; in assay [17] it was 11.3 µM; in assay [18], 6.15 µM. In addition, the TGI in assay [19] is 21.3 µM.
`Nc1cccc(OCC2CCCN3CCCCC23)c1` (stereo not given): the TGI was determined as 36.5 µM in [1]; 31.5 µM in [2]; 42.7 µM in [3]; 30 µM in [4]; 30.4 µM in assay [5]; 37.1 µM in assay [6]. For the same compound, the TGI is 32.6 µM in [7]; 45.1 µM in assay [8]; 35.2 µM in [9]; 36.8 µM in assay [10]; 87.4 µM in assay [11]; 31.4 µM in assay [12]. The TGI is > 100 µM in assay [13]; 31.7 µM in [14]; 34.3 µM in assay [15]; 36.1 µM in assay [16]; 34.4 µM in assay [17]; 44.6 µM in assay [18]. This compound also came in with a TGI in [19] of 33.8 µM.
As to `Cc1nc2cc3ccccc3cc2[nH]c1=O`, the TGI in assay [1], in [2], in assay [3], in assay [4], in assay [5] and in assay [6] was > 100 µM in each case. Also, the TGI in [7] is > 100 µM; in assay [8] it was > 100 µM; in assay [9], > 100 µM; in assay [10] it was > 100 µM; in assay [11], 80.2 µM; in assay [12], > 100 µM. For the same compound, the TGI in assay [13], in [14], in [15], in assay [16], in assay [17] and in [18] was > 100 µM each time. Besides, the TGI in assay [19] is > 100 µM.
With `COc1ccc(CNc2nc(NCc3ccc(OC)cc3)nc(NC3CCCC3)n2)cc1`, the TGI in [1] was 11.4 µM; in assay [2], > 20.6 µM; in assay [3], 3.61 µM; in [4] it was 38.6 µM; in [5] it was 10.1 µM; in [6], 9.83 µM. For the same compound, the TGI in assay [7] was > 31.2 µM; in [8] it was > 67.7 µM; in assay [9], > 44.7 µM; in [10], > 25.1 µM; in [11], > 100 µM; in [12] it was 76.9 µM. The TGI in assay [13] is > 55.8 µM; in [14], > 100 µM; in assay [15], > 22.2 µM; in assay [16], > 100 µM; in [17], 20 µM; in assay [18] it was > 25.3 µM. The TGI in assay [19] is > 31.5 µM. Besides, the GI50 in [4] was 3.67 µM.
Regarding `O=C1OCC(c2ccc(Cl)cc2)=C1Cl`, the TGI was > 100 µM in assay [1]; > 100 µM in assay [2]; 54.1 µM in assay [3]; 47.8 µM in assay [4]; 28.3 µM in [5]; 44.6 µM in [6]. The TGI in assay [7] was 98.6 µM; in assay [8], > 100 µM; in assay [9], 44.4 µM; in assay [10], 70.4 µM; in assay [11] it was 58.9 µM; in assay [12], 60.3 µM. In addition, the TGI is > 100 µM in assay [13]; > 100 µM in [14]; 54.6 µM in assay [15]; 56 µM in assay [16]; 73.6 µM in assay [17]; > 100 µM in assay [18]. For the same compound, the TGI in assay [19] is > 100 µM.
For `CCOC(=O)/C(C(=S)NCc1ccccc1)=C(/N)N1CCCC1`, the TGI in assay [1], in assay [2], in assay [3], in assay [4], in [5] and in [6] was > 100 µM throughout. Besides, the TGI in assay [7], in assay [8], in [9], in assay [10], in assay [11] and in assay [12] was > 100 µM throughout. Moreover, the TGI in assay [13], in assay [14], in assay [15], in assay [16], in [17] and in assay [18] was > 100 µM each time. Further, the TGI in assay [19] is > 100 µM.
